Reference: the supplement of paper PMC12317010
Structures can show the parent of a compound that is named as a salt.

Assay: collision cross section in nitrogen (drift tube, single-field); higher = larger gas-phase ion size
[1] = ion type: [M+H], ion source: APCI, ion mode: Positive
[2] = ion type: [M+H], ion source: ESI, ion mode: Positive
[3] = ion type: [M-H], ion source: ESI, ion mode: Negative
[4] = ion type: [M+Na], ion source: ESI, ion mode: Positive
[5] = ion type: [M+], ion source: APCI, ion mode: Positive
[6] = ion source: APCI, ion mode: Positive, ion type: [M]+ (permanent cation)
[7] = ion source: ESI, ion mode: Positive, ion type: [M]+ (permanent cation)
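Further: chemical standards at 10 µM analysed by drift tube IMS-QTOF MS in about 3.95 torr nitrogen, mean of duplicate injections differing ≤1%, mass error below 10 ppm.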

| collision cross section in nitrogen [1] [Å²] | collision cross section in nitrogen [3] [Å²] | SMILES | collision cross section in nitrogen [2] [Å²] | collision cross section in nitrogen [4] [Å²] | other results |
| --- | --- | --- | --- | --- | --- |
| 162.5 | – | CC(C)NCC(O)COc1cccc2ccccc12 (centres undefined) [Propranolol hydrochloride] | 162.8 | 167.7 | – |
| – | 142.9 | CCCOC(=O)c1ccc(O)cc1 [Propylparaben] | – | – | – |
| – | 149 | O=C1c2ccccc2C(=O)c2c(O)c(O)cc(O)c21 [Purpurin] | – | – | – |
| 133.7 | 133.3 | Cc1ncc(CO)c(CO)c1O [Pyridoxine hydrochloride] | – | 144 | – |
| 133.7 | 133.2 | Cc1ncc(CO)c(CO)c1O [Pyridoxine] | 134.6 | – | – |
| 158.8 | – | CCc1nc(N)nc(N)c1-c1ccc(Cl)cc1 [Pyrimethamine] | 159.4 | – | – |
| – | 164.7 | O=c1c(O)c(-c2ccc(O)c(O)c2)oc2cc(O)cc(O)c12 [Quercetin] | – | – | – |
| 192.1 | 183.5 | OCCOCCN1CCN(C2=Nc3ccccc3Sc3ccccc32)CC1 [Quetiapine fumarate] | 192.3 | 188.6 | – |
| – | 150.5 | O=C1c2ccc(O)c(O)c2C(=O)c2c(O)ccc(O)c21 [Quinalizarin] | – | – | – |
| 120.8 | – | c1ccc2ncccc2c1 [Quinoline] | – | – | – |
| 189.4 | – | COCCCOc1ccnc(CS(=O)c2nc3ccccc3[nH]2)c1C (centres undefined) [Rabeprazole sodium] | – | 179.5 | collision cross section in nitrogen [5]: 187.8 Å² |
| 215.7 | 213.4 | O=C(c1ccc(OCCN2CCCCC2)cc1)c1c(-c2ccc(O)cc2)sc2cc(O)ccc12 [Raloxifene hydrochloride] | 215.2 | 220.7 | – |
| 169.2 | 179.5 | CNC(=C[N+](=O)[O-])NCCSCc1ccc(CN(C)C)o1 [Ranitidine] | 169 | 176.2 | – |
| – | 152.9 | O=C(Oc1cccc(O)c1)c1ccccc1 [Resorcinol monobenzoate] | – | – | – |
| – | 118.9 | Oc1cccc(O)c1 [Resorcinol] | – | – | – |
| – | 159.3 | Oc1ccc(/C=C/c2cc(O)cc(O)c2)cc1 [Resveratrol] | – | – | collision cross section in nitrogen [5]: 155.1 Å² |
| 239.1 | – | O=C(CCCCCCCCc1cccnc1)N1CCC(C=C(c2ccccc2)c2ccccc2)CC1 [Ro 23-7637] | 238 | 242.7 | – |
| 250.9 | 236.7 | COc1cc(C(=O)NC2CCN(C)CC2)ccc1Nc1ncc2c(n1)N(C1CCCC1)CC(F)(F)C(=O)N2C [Ro 3280] | 250.7 | 262.3 | – |
| – | 174.4 | CS(=O)(=O)c1ccc(C2=C(c3ccccc3)C(=O)OC2)cc1 [Rofecoxib] | – | – | – |
| 172.4 | 176.3 | CN(CCOc1ccc(CC2SC(=O)NC2=O)cc1)c1ccccn1 (centres undefined) [Rosiglitazone maleate] | 172.5 | 182.7 | – |
| 277.7 | 282.3 | CC[C@H]1OC(=O)[C@H](C)[C@@H](O[C@H]2C[C@@](C)(OC)[C@@H](O)[C@H](C)O2)[C@H](C)[C@@H](O[C@@H]2O[C@H](C)C[C@H](N(C)C)[C@H]2O)[C@](C)(O)C[C@@H](C)C(=NOCOCCOC)[C@H](C)[C@@H](O)[C@]1(C)O [Roxithromycin] | 276.9 | 280.7 | collision cross section in nitrogen [5]: 276.3 Å² |
| 153.9 | 158.4 | Cc1cc(C)c(C=C2C(=O)Nc3ccccc32)[nH]1 [SU-5416] | 154.2 | – | collision cross section in nitrogen [5]: 152.2 Å² |
| – | 131.1 | O=C1NS(=O)(=O)c2ccccc21 [Saccharin] | – | – | – |
| – | 122.2 | NC(=O)c1ccccc1O [Salicylamide] | – | – | – |
| 144.8 | 145.5 | O=C(Nc1ccccc1)c1ccccc1O [Salicylanilide] | – | – | – |
| – | 124.5 | O=C(NO)c1ccccc1O [Salicylhydroxamic acid] | – | – | – |
| – | 121.2 | O=C(O)c1ccccc1O [Salicylic acid] | – | – | – |

Further lines, the compound ahead of its results:

| SMILES | collision cross section in nitrogen [1] [Å²] | collision cross section in nitrogen [3] [Å²] | collision cross section in nitrogen [2] [Å²] | collision cross section in nitrogen [4] [Å²] | other results |
| --- | --- | --- | --- | --- | --- |
| CCCC1COC(Cn2cncn2)(c2ccc(Cl)cc2Cl)O1 (centres undefined) [Propiconazole] | 180.9 | – | 179.8 | – | – |
| CC(C)c1cccc(C(C)C)c1O [Propofol] | – | 143.5 | – | – | – |
| CCCOc1nn(C(=O)NS(=O)(=O)c2ccccc2C(=O)OC)c(=O)n1C [Propoxycarbazone-sodium] | – | 193.2 | – | – | – |
| CCCCCCCCC(=O)OCC(C)OC(=O)CCCCCCCC (centres undefined) [Propylene glycol dipelargonate] | – | – | – | 207.9 | – |
| C#CC(C)(C)NC(=O)c1cc(Cl)cc(Cl)c1 [Propyzamide] | 157.9 | 157.3 | – | – | – |
| OC(Cc1ccccc1Cl)(Cn1nc[nH]c1=S)C1(Cl)CC1 (centres undefined) [Prothioconazole] | – | 171 | – | 174.4 | – |
| CC1=NNC(=O)N(/N=C/c2cccnc2)C1 [Pymetrozine] | 154.8 | – | 154.2 | 155.8 | – |
| COC(=O)N(OC)c1ccccc1COc1ccn(-c2ccc(Cl)cc2)n1 [Pyraclostrobin] | 184.5 | – | 183.8 | 195.5 | – |
| CCOC(=O)COc1cc(-c2nn(C)c(OC(F)F)c2Cl)c(F)cc1Cl [Pyraflufen-ethyl] | – | – | 188 | 198.4 | – |
| CCOC(=O)c1cn2nc(OP(=S)(OCC)OCC)cc2nc1C [Pyrazophos] | 192.5 | – | 191.7 | 195.9 | – |
| c1cc2ccc3cccc4ccc(c1)c2c34 [Pyrene] | – | – | – | – | collision cross section in nitrogen [5]: 136.3 Å² |
| CC(C)(C)c1ccc(CSc2cnn(C(C)(C)C)c(=O)c2Cl)cc1 [Pyridaben] | – | – | – | 208.8 | – |
| FC(F)(F)c1ccc(OCCCOc2c(Cl)cc(OCC=C(Cl)Cl)cc2Cl)nc1 [Pyridalyl] | 203 | – | 203.8 | 215 | – |
| Cc1cc(C)nc(Nc2ccccc2)n1 [Pyrimethanil] | 143.4 | – | 143.8 | – | – |
| CC(COc1ccc(Oc2ccccc2)cc1)Oc1ccccn1 (centres undefined) [Pyriproxyfen] | 184.3 | – | 184.3 | 185.4 | – |
| COc1cc(OC)nc(Sc2cccc(Cl)c2C(=O)O)n1 [Pyrithiobac sodium] | 166.7 | – | 166.6 | 173.5 | – |

| SMILES | collision cross section in nitrogen [1] [Å²] | collision cross section in nitrogen [3] [Å²] | collision cross section in nitrogen [2] [Å²] | collision cross section in nitrogen [4] [Å²] | other results |
| --- | --- | --- | --- | --- | --- |
| COc1cc(OC)nc(Sc2cccc(Cl)c2C(=O)O)n1 [Pyrithiobac] | 167.1 | – | 166.7 | 173.3 | – |
| CCCCCCCCCCCCCCCC[N+](C)(C)CC [Quaternium 17] | – | – | – | – | collision cross section in nitrogen [6]: 196.1 Å²; collision cross section in nitrogen [7]: 197.2 Å² |
| O=C(O)c1c(Cl)ccc2cc(Cl)cnc12 [Quinclorac] | – | – | 142.6 | – | – |
| Cc1cnc2c(C(=O)O)c(Cl)ccc2c1 [Quinmerac] | 139.6 | – | 140.7 | 158 | – |
| Fc1ccc(Oc2ccnc3cc(Cl)cc(Cl)c23)cc1 [Quinoxyfen] | 165.8 | – | 165.5 | – | – |
| COC(=O)[C@H]1[C@H]2C[C@@H]3c4[nH]c5cc(OC)ccc5c4CCN3C[C@H]2C[C@@H](OC(=O)c2cc(OC)c(OC)c(OC)c2)[C@@H]1OC [Reserpine] | – | – | – | – | collision cross section in nitrogen [5]: 242.8 Å² |
| CC(C)=CC1C(C(=O)OCc2coc(Cc3ccccc3)c2)C1(C)C (centres undefined) [Resmethrin] | – | – | – | 177.8 | – |
| CCNc1cc2[o+]c3cc(NCC)c(C)cc3c(-c3ccccc3C(=O)OCC)c2cc1C [Rhodamine 6G] | – | – | – | – | collision cross section in nitrogen [6]: 218.3 Å²; collision cross section in nitrogen [7]: 218.9 Å² |
| CCN(CC)c1ccc2c(-c3ccccc3C(=O)O)c3ccc(N(CC)CC)cc3[o+]c2c1 [Rhodamine B] | – | – | – | – | collision cross section in nitrogen [7]: 218.1 Å² |
| COc1ccn(C)c(=O)c1C#N [Ricinine] | 132.2 | – | 132.4 | 143 | – |
| CO[C@H]1/C=C/O[C@@]2(C)Oc3c(C)c(O)c4c(O)c(c(/C=N/N5CCN(C)CC5)c(O)c4c3C2=O)NC(=O)/C(C)=C\C=C\[C@H](C)[C@H](O)[C@@H](C)[C@@H](O)[C@@H](C)[C@H](OC(C)=O)[C@@H]1C [Rifampicin] | – | – | 282.3 | 279 | – |
| Cn1c([N+](=O)[O-])cnc1COC(N)=O [Ronidazole] | – | – | – | 143.1 | – |
| C=C(C)[C@H]1Cc2c(ccc3c2O[C@@H]2COc4cc(OC)c(OC)cc4[C@@H]2C3=O)O1 [Rotenone] | – | 199 | 194.8 | 207.3 | – |
| C=CCC1=C(C)[C@@H](OC(=O)[C@@H]2[C@@H](C=C(C)C)C2(C)C)CC1=O [S-Bioallethrin] | – | – | – | 184.5 | – |
| CCc1cccc(C)c1N(C(=O)CCl)[C@@H](C)COC [S-Metolachlor] | 159.5 | – | 160.1 | 172.5 | – |
